{"source": "ChEMBL document CHEMBL1201862", "about": "“PubChem BioAssay data set” (2004)", "key": {"H9c2": {"tested_on": "H9c2", "assay": "cells", "format": "functional, cell-based", "details": "Rattus norvegicus, H9c2, Myocardium"}, "Melanocortin receptor 4": {"biological_target": "Melanocortin receptor 4 (Homo sapiens, UniProt P32245)", "assay": "MC4R antagonist potency on cAMP, dose response, cell-based, TR-FRET, biased antagonists (AID 602298);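 also: antagonist potency against agonist-stimulated cAMP production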", "format": "functional"}, "[1]": {"assay": "nonselective inhibitors of cellular cAMP signaling, dose response, counter-screen for MC4R biased antagonist project, cell-based, TR-FRET cAMP detection (AID 602305);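 also: U2OS cells stimulated with forskolin near its EC80 as the cAMP inducer; potency is for inhibition of forskolin-stimulated cAMP signaling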", "format": "functional"}, "[2]": {"biological_target": "Tyrosine-protein kinase Lck (Homo sapiens, UniProt P06239)", "format": "functional"}, "[3]": {"biological_target": "Tyrosine-protein kinase BTK (Homo sapiens, UniProt Q06187)", "format": "functional"}, "[4]": {"biological_target": "Serine/threonine-protein kinase N2 (Homo sapiens, UniProt Q16513)", "format": "functional"}, "[5]": {"biological_target": "Serine/threonine-protein kinase TAO1 (Homo sapiens, UniProt Q7L7X3)", "format": "functional"}, "[6]": {"biological_target": "Tyrosine-protein kinase ABL1 (Homo sapiens, UniProt P00519)", "format": "functional"}, "[7]": {"biological_target": "Vascular endothelial growth factor receptor 2 (Homo sapiens, UniProt P35968)", "sequence (P35968 whole entry)": "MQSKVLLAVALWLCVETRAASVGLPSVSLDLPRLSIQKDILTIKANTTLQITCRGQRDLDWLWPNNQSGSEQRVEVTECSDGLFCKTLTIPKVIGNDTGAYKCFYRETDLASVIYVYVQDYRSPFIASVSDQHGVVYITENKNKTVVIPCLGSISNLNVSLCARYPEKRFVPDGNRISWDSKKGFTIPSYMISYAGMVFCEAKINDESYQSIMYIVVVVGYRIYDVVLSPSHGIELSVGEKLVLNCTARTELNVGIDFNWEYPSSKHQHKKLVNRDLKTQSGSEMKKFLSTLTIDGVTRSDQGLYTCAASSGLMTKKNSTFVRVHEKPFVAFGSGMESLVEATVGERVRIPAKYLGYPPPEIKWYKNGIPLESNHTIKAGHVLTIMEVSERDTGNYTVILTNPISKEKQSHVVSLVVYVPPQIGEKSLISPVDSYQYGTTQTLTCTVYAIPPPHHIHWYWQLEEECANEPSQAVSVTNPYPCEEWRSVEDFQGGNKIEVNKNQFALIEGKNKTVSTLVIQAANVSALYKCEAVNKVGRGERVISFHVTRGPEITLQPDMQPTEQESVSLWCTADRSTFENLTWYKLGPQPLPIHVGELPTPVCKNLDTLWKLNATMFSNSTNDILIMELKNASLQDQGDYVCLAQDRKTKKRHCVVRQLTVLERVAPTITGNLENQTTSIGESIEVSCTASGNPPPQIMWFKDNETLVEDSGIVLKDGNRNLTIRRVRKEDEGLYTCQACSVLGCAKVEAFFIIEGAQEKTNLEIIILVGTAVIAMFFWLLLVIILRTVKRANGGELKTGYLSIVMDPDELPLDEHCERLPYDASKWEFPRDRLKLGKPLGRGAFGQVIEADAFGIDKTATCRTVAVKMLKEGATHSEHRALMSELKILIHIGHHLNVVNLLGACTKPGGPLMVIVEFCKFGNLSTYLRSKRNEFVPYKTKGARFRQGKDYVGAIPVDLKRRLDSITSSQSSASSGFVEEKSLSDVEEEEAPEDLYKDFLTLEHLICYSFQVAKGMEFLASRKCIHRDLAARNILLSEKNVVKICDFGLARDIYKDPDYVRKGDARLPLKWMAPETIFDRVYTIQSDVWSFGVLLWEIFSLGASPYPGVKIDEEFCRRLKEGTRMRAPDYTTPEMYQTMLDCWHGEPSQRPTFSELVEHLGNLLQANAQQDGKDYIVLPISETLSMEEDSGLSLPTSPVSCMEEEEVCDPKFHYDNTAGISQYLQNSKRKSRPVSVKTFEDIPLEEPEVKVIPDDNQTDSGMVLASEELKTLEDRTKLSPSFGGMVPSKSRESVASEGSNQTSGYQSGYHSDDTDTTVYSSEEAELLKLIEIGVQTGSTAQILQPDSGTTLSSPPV", "format": "functional"}, "Misshapen-like kinase 1": {"biological_target": "Misshapen-like kinase 1 (Homo sapiens, UniProt Q8N4C8)", "format": "functional"}, "Focal adhesion kinase 1": {"biological_target": "Focal adhesion kinase 1 (Homo sapiens, UniProt Q05397)", "format": "functional"}, "[8]": {"biological_target": "Tyrosine-protein kinase Fyn (Homo sapiens, UniProt P06241)", "format": "functional"}, "[9]": {"biological_target": "Mitogen-activated protein kinase kinase kinase kinase 4 (Homo sapiens, UniProt O95819)", "sequence (O95819 whole entry)": "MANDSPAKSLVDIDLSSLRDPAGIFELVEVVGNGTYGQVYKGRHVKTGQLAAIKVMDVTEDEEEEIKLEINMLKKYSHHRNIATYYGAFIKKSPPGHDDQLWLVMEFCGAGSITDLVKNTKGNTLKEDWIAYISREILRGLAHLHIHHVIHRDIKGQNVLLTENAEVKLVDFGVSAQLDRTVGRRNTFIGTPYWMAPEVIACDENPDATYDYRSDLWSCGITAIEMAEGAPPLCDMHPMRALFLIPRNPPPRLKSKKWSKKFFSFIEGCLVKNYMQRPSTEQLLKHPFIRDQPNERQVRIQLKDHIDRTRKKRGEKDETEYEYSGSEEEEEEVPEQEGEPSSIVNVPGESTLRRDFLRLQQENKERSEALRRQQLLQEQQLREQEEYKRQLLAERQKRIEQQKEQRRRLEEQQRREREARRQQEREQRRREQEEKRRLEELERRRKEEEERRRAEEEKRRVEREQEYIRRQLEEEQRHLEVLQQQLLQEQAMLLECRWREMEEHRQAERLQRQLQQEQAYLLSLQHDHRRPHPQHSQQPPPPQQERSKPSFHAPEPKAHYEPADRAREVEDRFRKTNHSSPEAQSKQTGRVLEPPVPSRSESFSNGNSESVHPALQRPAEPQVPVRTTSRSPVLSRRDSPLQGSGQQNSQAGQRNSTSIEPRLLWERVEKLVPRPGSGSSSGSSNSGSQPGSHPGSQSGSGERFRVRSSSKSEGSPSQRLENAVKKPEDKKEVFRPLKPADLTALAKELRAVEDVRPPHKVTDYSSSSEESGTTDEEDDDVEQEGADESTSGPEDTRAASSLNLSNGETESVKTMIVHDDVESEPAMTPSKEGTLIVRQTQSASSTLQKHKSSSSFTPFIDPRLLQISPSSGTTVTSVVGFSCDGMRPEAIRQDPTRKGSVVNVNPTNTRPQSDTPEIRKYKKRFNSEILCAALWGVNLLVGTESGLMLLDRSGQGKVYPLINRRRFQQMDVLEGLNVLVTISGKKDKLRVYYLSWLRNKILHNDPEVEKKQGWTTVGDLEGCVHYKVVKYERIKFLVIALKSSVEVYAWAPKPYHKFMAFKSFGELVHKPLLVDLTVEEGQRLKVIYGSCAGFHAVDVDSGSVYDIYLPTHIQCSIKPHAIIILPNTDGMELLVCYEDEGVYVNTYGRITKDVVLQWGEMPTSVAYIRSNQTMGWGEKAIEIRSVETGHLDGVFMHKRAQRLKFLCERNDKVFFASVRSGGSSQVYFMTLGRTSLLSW", "format": "functional"}, "[10]": {"biological_target": "Serine/threonine-protein kinase pim-1 (Homo sapiens, UniProt P11309)", "format": "functional"}, "[11]": {"biological_target": "Cell division cycle 7-related protein kinase (Homo sapiens, UniProt O00311)", "sequence (O00311 whole entry)": "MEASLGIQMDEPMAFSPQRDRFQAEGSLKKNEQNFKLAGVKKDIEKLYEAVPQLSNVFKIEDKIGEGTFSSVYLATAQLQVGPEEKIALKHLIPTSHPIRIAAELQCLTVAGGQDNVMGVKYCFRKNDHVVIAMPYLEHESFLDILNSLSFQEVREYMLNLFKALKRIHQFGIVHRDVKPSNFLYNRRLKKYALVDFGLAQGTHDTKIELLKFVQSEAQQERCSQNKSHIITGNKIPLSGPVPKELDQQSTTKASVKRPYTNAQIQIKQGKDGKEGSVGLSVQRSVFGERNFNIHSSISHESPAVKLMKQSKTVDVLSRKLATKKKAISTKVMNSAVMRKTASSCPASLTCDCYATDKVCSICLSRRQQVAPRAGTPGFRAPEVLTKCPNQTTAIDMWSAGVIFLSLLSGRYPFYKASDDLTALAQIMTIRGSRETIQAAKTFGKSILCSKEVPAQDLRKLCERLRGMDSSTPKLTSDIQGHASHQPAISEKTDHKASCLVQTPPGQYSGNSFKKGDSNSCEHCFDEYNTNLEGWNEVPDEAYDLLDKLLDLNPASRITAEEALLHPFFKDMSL", "format": "functional"}, "[12]": {"biological_target": "Homeodomain-interacting protein kinase 2 (Homo sapiens, UniProt Q9H2X6)", "format": "functional"}, "[13]": {"biological_target": "MAP kinase-interacting serine/threonine-protein kinase 2 (Homo sapiens, UniProt Q9HBH9)", "sequence (Q9HBH9 whole entry)": "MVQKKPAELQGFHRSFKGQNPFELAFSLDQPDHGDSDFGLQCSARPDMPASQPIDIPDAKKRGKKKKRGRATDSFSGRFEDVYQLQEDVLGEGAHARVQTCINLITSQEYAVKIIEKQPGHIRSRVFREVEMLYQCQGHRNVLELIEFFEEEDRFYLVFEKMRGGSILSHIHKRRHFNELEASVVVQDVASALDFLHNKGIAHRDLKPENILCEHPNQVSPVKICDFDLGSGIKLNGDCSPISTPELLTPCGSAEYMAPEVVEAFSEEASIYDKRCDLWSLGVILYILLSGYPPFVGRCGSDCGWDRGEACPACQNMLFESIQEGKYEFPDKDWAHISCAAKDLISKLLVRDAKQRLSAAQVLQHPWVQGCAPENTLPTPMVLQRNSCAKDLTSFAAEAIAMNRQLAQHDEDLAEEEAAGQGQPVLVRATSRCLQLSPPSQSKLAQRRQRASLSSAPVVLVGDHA", "format": "functional"}, "[14]": {"biological_target": "Interleukin-1 receptor-associated kinase 4 (Homo sapiens, UniProt Q9NWZ3)", "format": "functional"}, "[15]": {"biological_target": "Glycogen synthase kinase-3 beta (Homo sapiens, UniProt P49841)", "format": "functional"}, "[16]": {"biological_target": "cAMP-dependent protein kinase catalytic subunit alpha (Homo sapiens, UniProt P17612)", "format": "functional"}, "[17]": {"biological_target": "Dual specificity protein kinase CLK4 (Homo sapiens, UniProt Q9HAZ1)", "format": "functional"}, "[18]": {"biological_target": "Protein disulfide-isomerase (Homo sapiens, UniProt P07237)", "assay": "PDI inhibitors, insulin aggregation turbidity, dose response, biochemical, absorbance, cherry-picked samples (AID 602350)", "format": "functional"}, "[19]": {"biological_target": "5'-AMP-activated protein kinase catalytic subunit alpha-1 (Homo sapiens, UniProt Q13131)", "format": "functional"}, "[20]": {"biological_target": "ALK tyrosine kinase receptor (Homo sapiens, UniProt Q9UM73)", "format": "functional"}, "[21]": {"biological_target": "Tyrosine-protein kinase HCK (Homo sapiens, UniProt P08631)", "assay": "Navigating the Kinome. Panel member name: HCK", "format": "functional"}, "[22]": {"biological_target": "Serine/threonine-protein kinase D3 (Homo sapiens, UniProt O94806)", "format": "functional"}, "[23]": {"biological_target": "Death-associated protein kinase 3 (Homo sapiens, UniProt O43293)", "format": "functional"}, "LIM domain kinase 1": {"biological_target": "LIM domain kinase 1 (Homo sapiens, UniProt P53667)", "assay": "Navigating the Kinome. Panel member name: LIMK1", "format": "functional"}, "[24]": {"biological_target": "Proto-oncogene tyrosine-protein kinase ROS (Homo sapiens, UniProt P08922)", "format": "functional"}, "[25]": {"biological_target": "Calcium/calmodulin-dependent protein kinase kinase 2 (Homo sapiens, UniProt Q96RR4)", "assay": "Navigating the Kinome. Panel member name: CAMKK2", "format": "functional"}, "[26]": {"biological_target": "Glycogen synthase kinase-3 alpha (Homo sapiens, UniProt P49840)", "format": "functional"}, "[27]": {"biological_target": "Mitogen-activated protein kinase kinase kinase kinase 2 (Homo sapiens, UniProt Q12851)", "format": "functional"}, "[28]": {"biological_target": "Platelet-derived growth factor receptor beta (Homo sapiens, UniProt P09619)", "sequence (P09619 whole entry)": "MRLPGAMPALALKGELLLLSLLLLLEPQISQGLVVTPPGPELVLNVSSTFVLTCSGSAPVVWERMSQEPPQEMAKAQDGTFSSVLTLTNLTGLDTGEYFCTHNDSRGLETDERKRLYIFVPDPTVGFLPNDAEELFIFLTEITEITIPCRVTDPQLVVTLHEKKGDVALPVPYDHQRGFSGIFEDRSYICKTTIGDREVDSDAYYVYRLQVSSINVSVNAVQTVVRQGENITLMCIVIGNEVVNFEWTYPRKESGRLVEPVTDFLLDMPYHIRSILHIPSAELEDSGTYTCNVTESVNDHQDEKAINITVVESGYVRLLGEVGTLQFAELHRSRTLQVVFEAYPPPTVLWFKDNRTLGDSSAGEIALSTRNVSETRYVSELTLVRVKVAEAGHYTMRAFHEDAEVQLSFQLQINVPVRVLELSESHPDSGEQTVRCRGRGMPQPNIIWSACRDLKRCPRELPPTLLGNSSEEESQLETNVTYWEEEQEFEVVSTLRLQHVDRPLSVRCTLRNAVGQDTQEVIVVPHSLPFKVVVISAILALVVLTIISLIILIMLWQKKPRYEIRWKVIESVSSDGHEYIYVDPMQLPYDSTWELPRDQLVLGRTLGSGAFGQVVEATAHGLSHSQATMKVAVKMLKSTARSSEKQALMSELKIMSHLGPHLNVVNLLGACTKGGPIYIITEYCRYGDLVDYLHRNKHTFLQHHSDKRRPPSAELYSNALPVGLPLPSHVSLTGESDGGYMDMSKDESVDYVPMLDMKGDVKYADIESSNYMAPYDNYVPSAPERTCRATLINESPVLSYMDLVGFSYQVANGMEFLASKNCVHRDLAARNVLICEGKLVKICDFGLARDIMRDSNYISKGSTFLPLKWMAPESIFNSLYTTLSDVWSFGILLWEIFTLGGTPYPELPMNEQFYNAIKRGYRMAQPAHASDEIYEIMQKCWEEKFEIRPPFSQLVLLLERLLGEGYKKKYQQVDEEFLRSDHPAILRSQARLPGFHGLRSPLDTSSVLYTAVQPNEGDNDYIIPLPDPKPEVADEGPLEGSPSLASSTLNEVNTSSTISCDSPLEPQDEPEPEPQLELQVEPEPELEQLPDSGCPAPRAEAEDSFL", "format": "functional"}, "[29]": {"biological_target": "Cyclin-dependent kinase 5 (Homo sapiens, UniProt Q00535)", "format": "functional"}, "[30]": {"biological_target": "T1, cAMP-dependent protein kinase catalytic subunit PRKX (Homo sapiens, UniProt P51817)", "T1 sequence (P51817 whole entry)": "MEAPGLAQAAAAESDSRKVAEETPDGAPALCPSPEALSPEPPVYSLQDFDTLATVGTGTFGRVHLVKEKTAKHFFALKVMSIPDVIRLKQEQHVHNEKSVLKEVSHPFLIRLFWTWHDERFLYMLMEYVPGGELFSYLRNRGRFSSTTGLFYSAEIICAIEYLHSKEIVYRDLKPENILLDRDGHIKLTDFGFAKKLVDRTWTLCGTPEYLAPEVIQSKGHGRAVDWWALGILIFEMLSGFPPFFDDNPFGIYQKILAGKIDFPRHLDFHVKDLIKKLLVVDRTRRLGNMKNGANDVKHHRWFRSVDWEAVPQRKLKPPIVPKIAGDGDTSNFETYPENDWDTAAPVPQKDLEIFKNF", "format": "functional"}, "[31]": {"biological_target": "Maternal embryonic leucine zipper kinase (Homo sapiens, UniProt Q14680)", "format": "functional"}, "[32]": {"biological_target": "Platelet-derived growth factor receptor alpha (Homo sapiens, UniProt P16234)", "assay": "Navigating the Kinome. Panel member name: PDGFRA", "format": "functional"}, "Aurora kinase B": {"biological_target": "Aurora kinase B (Homo sapiens, UniProt Q96GD4)", "sequence (Q96GD4 whole entry)": "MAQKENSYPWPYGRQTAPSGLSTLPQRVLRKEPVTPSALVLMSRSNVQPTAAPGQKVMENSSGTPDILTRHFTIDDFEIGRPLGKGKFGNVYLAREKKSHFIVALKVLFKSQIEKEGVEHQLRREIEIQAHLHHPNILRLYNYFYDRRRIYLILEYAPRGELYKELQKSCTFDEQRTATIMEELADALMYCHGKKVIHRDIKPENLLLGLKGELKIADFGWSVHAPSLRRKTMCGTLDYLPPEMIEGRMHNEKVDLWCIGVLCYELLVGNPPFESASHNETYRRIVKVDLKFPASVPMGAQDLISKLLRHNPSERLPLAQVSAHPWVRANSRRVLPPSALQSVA", "format": "functional"}, "[33]": {"biological_target": "Rho-associated protein kinase 1 (Homo sapiens, UniProt Q13464)", "format": "functional"}, "[34]": {"biological_target": "Cyclin-dependent kinase 7 (Homo sapiens, UniProt P50613)", "format": "functional"}, "[35]": {"biological_target": "Vascular endothelial growth factor receptor 1 (Homo sapiens, UniProt P17948)", "format": "functional"}, "[36]": {"biological_target": "Cyclin-dependent kinase 9 (Homo sapiens, UniProt P50750)", "format": "functional"}, "[37]": {"biological_target": "Macrophage-stimulating protein receptor (Homo sapiens, UniProt Q04912)", "assay": "Navigating the Kinome. Panel member name: MST1R", "format": "functional"}, "[38]": {"biological_target": "Leukocyte tyrosine kinase receptor (Homo sapiens, UniProt P29376)", "assay": "Navigating the Kinome. Panel member name: LTK", "format": "functional"}, "[39]": {"biological_target": "Serine/threonine-protein kinase 3 (Homo sapiens, UniProt Q13188)", "format": "functional"}}, "note": "Calls of active or inactive are those of the source.", "data": [{"compound": "CS(=O)(=O)Nc1cccc(NC(=O)c2cccc3c(-c4cccc(C(N)=O)c4)coc23)c1", "values": [{"measurement": "IC50", "setting": "H9c2", "value": "> 79000 nM (inactive)"}, {"measurement": "IC50", "setting": "Melanocortin receptor 4", "value": "> 64600 nM (inactive)"}, {"measurement": "IC50", "setting": "[1]", "value": "> 64600 nM (inactive)"}]}, {"compound": "CN(C)c1c(NC(=O)c2c(F)cccc2F)cccc1-c1nc2sccn2c1-c1ccnc(Nc2cccc(N3CCOCC3)c2)n1", "values": [{"measurement": "Ki", "setting": "[2]", "value": "501 nM (active)"}, {"measurement": "Ki", "setting": "[3]", "value": "> 6310 nM (inactive)"}, {"measurement": "Ki", "setting": "[4]", "value": "> 5010 nM (inactive)"}, {"measurement": "Ki", "setting": "[5]", "value": "> 6310 nM (inactive)"}, {"measurement": "Ki", "setting": "[6]", "value": "501 nM (active)"}, {"measurement": "Ki", "setting": "[7]", "value": "2000 nM (active)"}, {"measurement": "Ki", "setting": "Misshapen-like kinase 1", "value": "> 5010 nM (inactive)"}, {"measurement": "Ki", "setting": "Focal adhesion kinase 1", "value": "> 6310 nM (inactive)"}, {"measurement": "Ki", "setting": "[8]", "value": "> 6310 nM (inactive)"}, {"measurement": "Ki", "setting": "[9]", "value": "1260 nM (active)"}]}, {"compound": "Cc1cccc(CNc2cc(-c3c[nH]c4ncccc34)ncn2)c1", "values": [{"measurement": "Ki", "setting": "[10]", "value": "126 nM (active)"}, {"measurement": "Ki", "setting": "[11]", "value": "2.51 nM (active)"}, {"measurement": "Ki", "setting": "[12]", "value": "158 nM (active)"}, {"measurement": "Ki", "setting": "[13]", "value": "158 nM (active)"}, {"measurement": "Ki", "setting": "[14]", "value": "501 nM (active)"}, {"measurement": "Ki", "setting": "[15]", "value": "7.94 nM (active)"}, {"measurement": "Ki", "setting": "[16]", "value": "158 nM (active)"}, {"measurement": "Ki", "setting": "[17]", "value": "6.31 nM (active)"}]}, {"compound": "CCN1C[C@]2(COC(=O)c3ccccc3N)CC[C@H](OC)C34[C@@H]5C[C@H]6[C@H](OC)[C@@H]5[C@](O)(C[C@@H]6OC)[C@@](O)([C@H]13)[C@@H](OC)[C@@H]42", "values": [{"measurement": "AC50", "setting": "[18]", "value": "19500 nM (active)"}]}, {"compound": "CCN1CCN(Cc2ccc(NC(=O)Nc3ccc(Oc4cc(NC)ncn4)cc3)cc2C(F)(F)F)CC1", "note": "[AST-487]", "values": [{"measurement": "Ki", "setting": "[19]", "value": "> 3160 nM (inactive)"}, {"measurement": "Ki", "setting": "[20]", "value": "> 6310 nM (inactive)"}, {"measurement": "Ki", "setting": "[21]", "value": "100 nM (active)"}, {"measurement": "Ki", "setting": "[22]", "value": "> 3980 nM (inactive)"}, {"measurement": "Ki", "setting": "[23]", "value": "3980 nM (active)"}, {"measurement": "Ki", "setting": "LIM domain kinase 1", "value": "> 3160 nM (inactive)"}, {"measurement": "Ki", "setting": "[24]", "value": "2000 nM (active)"}, {"measurement": "Ki", "setting": "[25]", "value": "794 nM (active)"}, {"measurement": "Ki", "setting": "[26]", "value": "> 3980 nM (inactive)"}, {"measurement": "Ki", "setting": "[27]", "value": "79.4 nM (active)"}, {"measurement": "Ki", "setting": "[28]", "value": "7.94 nM (active)"}, {"measurement": "Ki", "setting": "[7]", "value": "2.51 nM (active)"}, {"measurement": "Ki", "setting": "[29]", "value": "> 3160 nM (inactive)"}, {"measurement": "Ki", "setting": "[30]", "value": "> 3160 nM (inactive)"}, {"measurement": "Ki", "setting": "[31]", "value": "126 nM (active)"}, {"measurement": "Ki", "setting": "[32]", "value": "79.4 nM (active)"}, {"measurement": "Ki", "setting": "Aurora kinase B", "value": "> 3980 nM (inactive)"}, {"measurement": "Ki", "setting": "[33]", "value": "> 3980 nM (inactive)"}, {"measurement": "Ki", "setting": "[34]", "value": "> 5010 nM (inactive)"}, {"measurement": "Ki", "setting": "[35]", "value": "31.6 nM (active)"}, {"measurement": "Ki", "setting": "[36]", "value": "> 1580 nM (inactive)"}, {"measurement": "Ki", "setting": "[37]", "value": "> 3980 nM (inactive)"}, {"measurement": "Ki", "setting": "[38]", "value": "631 nM (active)"}, {"measurement": "Ki", "setting": "[39]", "value": "> 2510 nM (inactive)"}]}]}
